Here are results for three molecules from publication PMC7617869, “Molecular glues that inhibit deubiquitylase activity and inflammatory signaling” (Nature Structural & Molecular Biology, 2025).

Values joined by “and” are separate entries in the source; they are usually repeats but may differ in a detail not shown here. Equal values may be shown once.

Test [1] relates to IFNAR1 surface levels in THP-1 cells. The experiment in a line: THP-1 IFNAR1 surface levels (FACS). It is filed as cell-based, human. The note with it: for IFNAR1 surface levels (Fig. 5h): IFN + compound, No IFN = 100; for IFNAR1 surface levels: THP-1, hIFNα2 25 ng/ml, 4 μM, 16 h. The protocol:
THP-1 in vitro experiments
THP-1-DualTM cells (InvivoGen), derived from a human monocytic cell line, isolated from a patient with acute monocytic leukaemia, were cultured as per manufacturer’s guidance. Cells were seeded at 1x10^6 cells/mL in RPMI1640 media containing 10% fetal bovine serum (FBS), 1% penicillin-streptomycin (PS) (Gibco Laboratories) with DMSO (0.1%) (control) or in media containing JMS-175- […]
ng/mL) (Merck Life Science), ODN 2216 (1 µM) (Miltenyi Biotec), or Poly:IC (1 µg/mL) (InvivoGen).
Tofacitinib (Cambridge Biosciences) at 0.4 µM was used for comparison against a known JAK inhibitor.
Cells were centrifuged at 300 g for 5 minutes. Supernatant was removed and subjected to simultaneous study of the NF -κB pathway, by monitoring the activity of secreted alkaline phosphatase reporter (SEAP), and the IRF pathway, by assessing the activity o f a secreted Lucia luciferase using QUANTI - Blue ™ Solution and QUANTI -Luc™ 4 Lucia/Gaussia (InvivoGen), respectively, as per manufacturer’s instructions. Pelleted cells were used for FACS analysis using IFNα/β R1 APC-conjugated antibody or isotype control (Biotechne, FAB245A and IC002A), or unstained staining procedure with and without Zombie GreenTM (Biolegend). Samples were analysed using CytoFlex LX (Beckman) (50,000 live cells per condition). Median fluorescence intensity for APC channel gated on single cell live cells was analysed and compared as a percentage to control (no stimulation condition). […]

Test [2] deals with IFNAR1 cell surface levels in MCF10A BRCC45 WT cells. Description: MCF10A BRCC45 WT IFNAR1 cell surface levels (FACS). Format: cell-based, human. The note with it: for IFNAR1 cell surface levels (Fig. 5g): BRCC45 KO + BRCC45 WT, IFN + compound, No IFN about 100; for IFNAR1 cell surface levels: BRCC45 WT cells, IFN 50 ng/ml, 5 μM, 90 min. As to the method: To study the direct effect of BRISC DUB inhibitors, IFNAR1 surface levels were measured using flow cytometry (FACS) analysis. For this purpose, MCF10A WT and MCF10A BRCC45 KO cells expressing […]
BRCC45 WT or BRCC45 R137A were used. […]
minutes prior to the addition of 50 ng/mL of hIFN-Iα for various time points (45 minutes and 90 minutes).
After IFN treatment, cells were dissociated from plate using cell dissociation Buffer (ThermoFisher Scientific, #13150016) and were stained with LIVE/DEAD™ Fixable Violet Dead Cell Stain Kit, for 405 nm excitation (ThermoFisher Scientific, #L34963) for 30 minutes, as per the kit protocol. The cells were then washed using FACS buffer (DPBS, 1% BSA, 2 mM EDTA, 0.09% sodium azide) and transferred to 96-well round bottom plates. Resuspended cells were divided into three repeats for each sample, each was surface stained for 1 hour at 4 °C with: 1. Human IFN-alpha/beta R1 Antibody (R&D systems, #MAB245), 2. Mouse IgG1 Isotype Control (R&D systems, #MAB002), 3. FACS buffer (control cells).
Following incubation, cells were washed once with FACS buffer and were labelled for 30 minutes at 4 °C with either Biotin-SP-conjugated AffiniPure Donkey Anti-Mouse IgG (H+L) (Jackson Immunoresearch Laboratories) for samples 1 and 2 or with FACS buffer for sample 3. Cells were washed twice with FACS buffer and were labelled for 15 minutes at 4 °C with either R-Phycoerythrin-conjugated Streptavidin (Jackson Immunoresearch Laboratories) for samples 1 and 2 or with FACS buffer for sample 3. Cells were washed 3 times with FACS buffer and were analysed by FACS (MACSQuant, Miltenyi Biotec). For each sample from group 1 the Geo mean fluorescence intensity (MFI) of its isotype sample was reduced. IFNAR1 cell surface percentage was calculated by 100*(MFI

For the molecule `O=C(NC1CCNCC1)c1nn(C(=O)c2c(Cl)cccc2Cl)cc1NC(=O)c1c(Cl)cccc1Cl` [JMS-175-2], in test [1], the “IFNAR1 surface levels (Fig. 5h)” value was 48.4567 and 45.7565 and 33.0649; the IFNAR1 surface levels result was “reduction in IFNAR1 surface levels”. Besides, in test [2], the “IFNAR1 cell surface levels (Fig. 5g)” value is 38.381 and 37.8977 and 40.435; the “IFNAR1 cell surface levels” value is on record as “reduction in IFNAR1 cell surface levels”.

For the molecule `Cn1cc(NC(=O)c2c(Cl)cccc2Cl)c(C(=O)NC2CCN(C(=O)c3c(Cl)cccc3Cl)CC2)n1` [AP-5-145], in test [1], the “IFNAR1 surface levels (Fig. 5h)” value is 65.8984 and 82.4668 and 66.4812; the IFNAR1 surface levels entry was “no significant reduction”. In addition, the “IFNAR1 cell surface levels (Fig. 5g)” value in test [2] was 55.2385 and 54.5047 and 53.242.

As for `O=C(NC1C2CNCC21)c1nn(C(=O)c2c(Cl)cccc2Cl)cc1NC(=O)c1c(Cl)cccc1Cl` (centres unmarked) [FX-171-C], in test [1], the “IFNAR1 surface levels (Fig. 5h)” value was 56.2651 and 56.964 and 56.0526; the IFNAR1 surface levels entry is on record as “reduction in IFNAR1 surface levels”. Further, in test [2], the “IFNAR1 cell surface levels (Fig. 5g)” value is 39.3476 and 40.435 and 39.71; the “IFNAR1 cell surface levels” value is “reduction in IFNAR1 cell surface levels”.
